Test results published in patent publication US20250034091A1, “Small molecule inhibitors of lanosterol synthase” (Board of Regents, The University of Texas System, priority 2022, published 2025).

Tests used:
[1] = target: T1, EBP (Homo sapiens, UniProt Q15125); experiment: displacement of EBP-specific photoaffinity probe TASIN-2 in HCT116 cells; format: binding; settings: 1 μM TASIN-2
T1 construct: endogenous in cells; host or cells: HCT116
Description: (§1) Inhibition of these sterol biosynthetic enzymes might provide an explanation for our observation that Ro-48-8071 has a blunted increase in EPC following LSS inhibition. […] Consistent with the proteomics data, Ro 48-8071 and TASIN-30, but not 1, displaced TASIN-2 (band migrating at approximately 20 kDa).

[2] = tested on: Lss; experiment: quantification of canonical and shunt pathway sterol intermediates in Mut6 cells; format: cell-based, mouse
Description: Inhibitors of LSS block the canonical cholesterol biosynthetic pathway (referred to as the Bloch and Kandutsch-Russell pathways) and concomitantly stimulate the production of 24(S),25-epoxycholesterol (EPC) through a “shunt” pathway (Mark et al., 1996; Morand et al., 1997). For sterol synthesis, squalene, a symmetric polyene hydrocarbon intermediate in the cholesterol biosynthetic pathway, is oxidized by squalene epoxidase (SQLE) in the presence of NADPH and oxygen to generate (S)-2,3-oxidosqualene (OS), which in turn is converted by LSS into lanosterol. LSS inhibition shunts OS back to SQLE, which catalyzes a second oxidation event yielding the C2-symmetric (S,S)-2,3:22,23-dioxidosqualene (DOS). DOS is a preferred substrate for LSS and, even in the presence of an LSS inhibitor, DOS is converted by LSS into 24(S),25-epoxylanosterol (EPL) (Boutaud et al., 1992). EPL is further converted into EPC by the same enzymes that convert lanosterol into cholesterol (Nelson et al., 1981a; Nelson et al., 1981b). The overall consequence of LSS inhibition is reduced levels of canonical pathway intermediates and increased levels of shunt pathway intermediates. […] We considered that the decrease in EPC at higher concentrations might be the result of complete inhibition of LSS; however, the levels of DOS and EPL continued to increase at doses where EPC was decreasing. […] Pertinent to this hypothesis, in astrocytes, EPC stimulates the expression of sterol transporters including ABCA1 and is itself readily effluxed (Wong et al., 2007). We hypothesize that a threshold level of EPC, reached at higher concentrations of 1, activates transporter expression, leading to EPC efflux and the observed decrease in EPC levels. Taken together, we conclude that inhibition of Lss by MM0299 (1) leads to a dose-dependent decrease in canonical intermediates and an increase in shunt pathway intermediates.
To better gauge the role of EPC in the anti-cancer activity of 1, we sought to determine whether the levels of EPC achieved in cells treated with 1 are sufficient for toxicity.

[3] = tested on: Dhcr7; experiment: displacement of Dhcr7-specific probe; format: binding, mouse
[4] = tested on: Mut6 cells; experiment: rescue of toxicity by co-treatment with SQLE inhibitor NB-598 in Mut6 cells; format: cell-based, murine; settings: co-treatment with NB-598
Description: To assess whether EPC was necessary for MM0299 activity, we considered pharmacologic tools that could selectively block the shunt pathway. In the context of LSS inhibition, the production of DOS requires two cycles of oxidation by squalene epoxidase (SQLE), whereas OS only requires one. Therefore, we reasoned that co-administration of an SQLE inhibitor might have a greater effect on DOS levels and impede flux through the shunt pathway. […] Taken together, we concluded that NB-598 is a pharmacologic tool to selectively block the shunt pathway and assess the requirement for EPC for MM0299 activity. […] These observations are consistent with the hypothesis that inhibition of LSS and the consequent increase in EPC are responsible for toxicity at low nanomolar range. We noted that 1 remained toxic to Mut6 cells at higher concentrations despite the addition of NB-598. Toxicity at these concentrations, which are not likely to be pharmacologically achievable, is unlikely to be a consequence of EPC production, and more likely to be the result of sterol depletion through direct inhibition of cholesterol biosynthesis.
As a consequence, even though Ro-48-8071 inhibits LSS, its anti-proliferative effects are more likely to be multifactorial. To evaluate the contribution of EPC for Ro 48-8071-induced toxicity, we co-incubated Ro 48-8071 with increasing concentrations of NB-598.

[5] = tested on: Ebp, Dhcr7, and Dhcr24; experiment: cellular levels of sterols that mark inhibition of Ebp, Dhcr7, Dhcr24; format: cell-based; settings: for cellular 8,9-dehydrocholesterol (8,9-DHC) levels: marker of EBP inhibition
Description: as §1
Consistent with inhibition, the cellular levels of 7-dehydrodesmosterol, a Dhcr7 substrate, accumulated following treatment with Ro 48-8071 but not 1.

[6] = tested on: enzymes downstream of LSS; experiment: d6-EPC production from isotopically labeled EPL (d6-EPL) in cells; format: cell-based
Description: This latter observation raised the hypothesis that Ro 48-8071 inhibited one or more enzymes downstream of LSS thereby blunting EPC synthesis. To evaluate whether Ro 48-8071 inhibits the synthesis of EPC downstream of EPL, we cultured cells with isotopically labeled EPL (d6-EPL) and measured d6-EPC production following compound treatment. Ro 48-8071 inhibited the production of d6-EPC while 1 had no effect on d6-EPC production. […] For small molecules that inhibit enzymes downstream of LSS, our prediction is that lanosterol would not be efficiently converted to cholesterol and therefore would not rescue toxicity as effectively as cholesterol. […] By comparison, exogenous lanosterol and cholesterol provided a complete and equivalent degree of rescue in cells treated with 1.

[7] = tested on: UTSW63; experiment: rescue of toxicity by NB-598 in UTSW63; format: cell-based, human; settings: lower doses of NB-598
Protocol: Like Mut6 cells, both UTSW63 and UTSW71 grow as neurospheres in serum-free medium (data not shown). […] MM0299 toxicity in the two human GSC lines is completely rescued by exogenous MCD-conjugated lanosterol or cholesterol. A naturally occurring mechanism for the import of extracellular cholesterol is the uptake of circulating low-density lipoprotein (LDL). Therefore, we investigated whether human LDL could rescue MM0299 toxicity in human GBM cells. Addition of 20 μg/ml human LDL completely rescued the toxicity of 1 in both UTSW63 and UTSW71 cells. To investigate the role of the shunt pathway in MM0299 toxicity, we again turned to the tool compound NB-598.

T1 sequence (Q15125 whole entry): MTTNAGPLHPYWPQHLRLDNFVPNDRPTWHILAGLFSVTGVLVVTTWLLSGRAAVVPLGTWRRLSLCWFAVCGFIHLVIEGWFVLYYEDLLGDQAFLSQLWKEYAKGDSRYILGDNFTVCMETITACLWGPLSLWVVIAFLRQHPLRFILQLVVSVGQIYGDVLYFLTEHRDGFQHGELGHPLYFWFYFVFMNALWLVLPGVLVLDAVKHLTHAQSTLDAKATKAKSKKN

displacement of TASIN-2 (EBP probe) [1]	Compound	peak levels of EPC relative to those after 1 treatment [2]	displacement of Dhcr7-probe (crosslinked Dhcr7 band) [3]	increase in the IC50 with NB-598 [4]	cellular levels of 7-dehydrodesmosterol ([5]; Dhcr7 substrate)	accumulation of desmosterol ([5]; marker of Dhcr24 inhibition, high doses)	cellular 8,9-dehydrocholesterol (8,9-DHC) levels [5]	effect on d6-EPC production from d6-EPL [6]	increase in IC50 with NB-598, UTSW63 [7]	increase of EPC at peak ([2]; 0.1 μM compound 1)	peak level of EPC ([2]; 0.1 μM compound 1)	EPC level after lethal dose ([2]; 1 at 0.1 μM)	IC50 ([2]; Mus musculus, read-out: IC50 of lanosterol decrease)	dose-dependent decrease in the product lanosterol ([2]; maximum)	dose-dependent increase in the primary LSS substrate OS ([2]; maximum)	increase in shunt pathway intermediate DOS ([2]; maximum)	increase in shunt pathway intermediate EPL ([2]; maximum)
displaced	C=CCN(C)CCCCCCOc1ccc(C(=O)c2ccc(Br)cc2)c(F)c1 [Ro 48-8071, reference compound]	62%	displaced	3.2 fold	accumulated	accumulation	accumulation	inhibited									
	COc1ccc(C(=O)COc2ccc(N3C(=O)[C@@H]4[C@@H]5C=C[C@@H]([C@H]6C[C@@H]56)[C@@H]4C3=O)cc2)cc1 [compound 1, (3aR,4R,4aR,5aS,6S,6aS)-2-(4-(2-(4-Methoxyphenyl)-2-oxoethoxy)phenyl)-4,4a,5,5a,6,6a-hexahydro-4,6-ethenocyclopropa[f]isoindole-1,3(2H,3aH)-dione]		did not displace	11.8 fold			no effect	no effect	15.0 fold	13.9 fold	390 ng/mg protein	342 ng EPC/mg protein	45.5 nM	up to 24.5 fold	up to 6.48 fold	up to 17.9 fold	≤ 25.6 fold
